Source: patent US20050119288A1, “Dosing schedule for a novel anticancer agent” (Pfizer Inc, priority 2003, published 2005)
Like-named read-outs stand apart in the source and are kept apart here.

Experiment: Pharmacokinetics in BT-474 tumor-bearing mice
Assay type: in vivo
Conditions: for Cave0-4 h: PO, day 22; for AUC(0-t) / Cmax: female, athymic, mouse, blood, po; for Cmax: day 22, read-out: Cmax 0.5 h
Procedure: Exponentially growing BT-474 cells (RPMI 1640 with 10 mM HEPES, 10% FBS, and pen/strep [Gibco]) were harvested and inoculated SC (5 million cells/animal) into female athymic mice. Trochar pieces of BT-474 tumors were then implanted into the right flank of animals. BT-474 tumor bearing mice (50-320 mm^3 in size, N=40) were randomized in 7 groups consisting 5-6 animals each. Animals were treated with vehicle (PO, BID) or the test compound (PO, QD or BID) as described in Table 4. The tumor measurements and body weight changes were obtained on days 1, 6, 11, 15 and 22. Tumor volume was calculated by the following formula: Tumor volume (mm^3)═(W×W)/2×L (L=length & W=width). Blood samples (˜50 μl) were isolated at 0.5, 1, 2, 4 and 8 hrs after dosing on day 22 for PK-analysis. Tumors were isolated at 0.5 hr post-dosing on day 22 for PD-analysis by ELISA.

## COCC(=O)NC/C=C/c1ccc2ncnc(Nc3ccc(Oc4ccc(C)nc4)c(C)c3)c2c1 [Test Compound, E-2-Methoxy-N-(3-{4-(3-methyl-4-(6-methyl-pyridin-3-yloxy)-phenylamino)-quinazolin-6-yl}-allyl)-acetamide]
15 mg/kg, BID
  Cave0-4 h: 0.12 µg/mL
  Cmax: 0.616 µg/mL
30 mg/kg, BID, estimated based on the extrapolated concentration at 4 hr from 2 hr and 8 hr exposures
  Cave0-4 h: 0.36 µg/mL
30 mg/kg, QD, estimated based on the extrapolated concentration at 4 hr from 2 hr and 8 hr exposures
  Cave0-4 h: 0.32 µg/mL
50 mg/kg, BID
  Cave0-4 h: 1.32 µg/mL
  Cmax: 6.17 µg/mL
50 mg/kg, QD, estimated based on the extrapolated concentration at 4 hr from 2 hr and 8 hr exposures
  Cave0-4 h: 1.06 µg/mL
15 mg/kg, BID, day 22, read-out: AUC0-4 h
  AUC(0-t): 0.48 µg·h/mL
15 mg/kg, QD
  Cmax: 0.25 µg/mL
30 mg/kg, BID, day 22, estimated based on the extrapolated concentration at 4 hr from 2 hr and 8 hr exposures, read-out: AUC0-4 h
  AUC(0-t): 1.44 µg·h/mL
30 mg/kg, BID
  Cmax: 1.57 µg/mL
30 mg/kg, QD, day 22, estimated based on the extrapolated concentration at 4 hr from 2 hr and 8 hr exposures, read-out: AUC0-4 h
  AUC(0-t): 1.28 µg·h/mL
30 mg/kg, QD
  Cmax: 1.8 µg/mL
50 mg/kg, BID, day 22, read-out: AUC0-4 h
  AUC(0-t): 5.28 µg·h/mL
50 mg/kg, QD, day 22, estimated based on the extrapolated concentration at 4 hr from 2 hr and 8 hr exposures, read-out: AUC0-4 h
  AUC(0-t): 4.22 µg·h/mL
50 mg/kg, QD
  Cmax: 5.89 µg/mL
